Consider 38 molecules from PubChem BioAssay (NCI).

“And” between values parts separate entries of the source, which are not always exact repeats. Equal entries are not always repeated.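 Values below derive from 48-hour exposures of cells grown in 96-well plates, with endpoints linearly interpolated between the two concentrations bracketing the appropriate inhibition level. GI50: concentration for 50% inhibition of growth. TGI: total growth inhibition.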

Some test systems named below: M19-MEL melanoma; XF 498 CNS; DLD-1 colon; LXFL 529 NSCLC; HOP-18 NSCLC; PC-3 prostate; MDA-N; BT-549 breast; T-47D breast.
What all share (experiment): NCI tumour cell line growth inhibition, 48 h

Regarding `O=S(O)CCCCSSCCCCSSCCCCS(=O)O`, the TGI with M19-MEL melanoma was greater than 100 µM; in the assay on XF 498 CNS it was 21.4 µM; with DLD-1 colon, greater than 100 µM; in the assay with LXFL 529 NSCLC, 28.4 µM; in the assay with HOP-18 NSCLC, greater than 100 µM.
Regarding `CSc1nc(NC2OC(COC(C)=O)C(OC(C)=O)C(OC(C)=O)C2OC(C)=O)c2c(OC(C)=O)c(C)c(=O)oc2n1` (stereo not given), the TGI in the assay with M19-MEL melanoma, with XF 498 CNS, with DLD-1 colon, in the assay on LXFL 529 NSCLC and with HOP-18 NSCLC was greater than 100 µM each time.
Turning to `CC(=O)NC(CCCN)C(=O)NCc1ccccc1` (stereo not given), the TGI in the assay with M19-MEL melanoma, in the assay on XF 498 CNS, in the assay on DLD-1 colon and with LXFL 529 NSCLC was greater than 100 µM each time.
With `COc1ccc(OC)c(/C=C/NC=O)c1`, the TGI in the assay with M19-MEL melanoma, with XF 498 CNS, in the assay with PC-3 prostate, in the assay on DLD-1 colon, in the assay with LXFL 529 NSCLC and with HOP-18 NSCLC was greater than 100 µM in each case.
`CN(C)C(=S)SN(C)C(=O)Nc1ccccc1`: the TGI is greater than 31.6 µM with M19-MEL melanoma; 43.3 µM in the assay with MDA-N; greater than 100 µM in the assay on PC-3 prostate; greater than 100 µM in the assay with DLD-1 colon; greater than 100 µM with LXFL 529 NSCLC; greater than 100 µM in the assay on BT-549 breast. In the assay with T-47D breast, this molecule came in with a TGI of 99.1 µM.
Consider `Nc1c(-c2ccc(Br)cc2)[n+]([O-])c2ccccc2[n+]1[O-]`, for which the TGI with DLD-1 colon, in the assay on LXFL 529 NSCLC and in the assay on HOP-18 NSCLC was greater than 100 µM in each case.
Consider `C#CC[C@]12CC(=O)CC[C@H]1CC(=O)C2`, for which the TGI in the assay with M19-MEL melanoma, with DLD-1 colon, with LXFL 529 NSCLC and in the assay with HOP-18 NSCLC was greater than 100 µM each time.
Consider `Cc1ccc(C(=O)/C=C/c2ccccc2O)c(C)c1`, for which the results for the TGI in the assay on M19-MEL melanoma, in the assay with DLD-1 colon and in the assay on LXFL 529 NSCLC were 3.07 µM, greater than 100 µM and greater than 100 µM, respectively.
For `NCCCNCCSSCCCCS(=O)O`, the TGI in the assay with M19-MEL melanoma is 40.5 µM; in the assay on XF 498 CNS, 37.4 µM; with DLD-1 colon, greater than 100 µM; in the assay with LXFL 529 NSCLC, 92.2 µM; with HOP-18 NSCLC it was greater than 100 µM.
Regarding `NC1C2(CCCCCC2)NC(=O)C12CCCCCC2` (stereo not given), the TGI in the assay on XF 498 CNS, in the assay with DLD-1 colon, in the assay on LXFL 529 NSCLC and in the assay with HOP-18 NSCLC was greater than 100 µM each time.
Turning to `CC(=O)c1ccc(NC(=O)/C(Cc2ccccn2)=N/NC(=O)C[N+](C)(C)C)cc1`, the TGI with M19-MEL melanoma, in the assay on DLD-1 colon, in the assay with LXFL 529 NSCLC and with HOP-18 NSCLC was greater than 100 µM each time.
On to `CCc1cccc(C)c1NC(C)=O`, for which the TGI in the assay on M19-MEL melanoma, in the assay on XF 498 CNS, in the assay with DLD-1 colon and with LXFL 529 NSCLC was greater than 100 µM in each case.
For `N#CCCN(c1ccc(/C=C2\N=C(c3ccc(Cl)cc3)OC2=O)cc1)S(=O)(=O)c1ccccc1`, the TGI in the assay with M19-MEL melanoma, in the assay with XF 498 CNS, in the assay with DLD-1 colon and in the assay on LXFL 529 NSCLC was greater than 100 µM each time.
As to `O=C(NC1CCCCCC1)C1C(=O)N(C2CCCCCC2)C(=O)/C1=N\O` (stereo not given), the TGI was 75.6 µM in the assay on M19-MEL melanoma, greater than 100 µM in the assay on DLD-1 colon, greater than 100 µM in the assay on LXFL 529 NSCLC and greater than 100 µM in the assay with HOP-18 NSCLC.
With `Cc1cc(C2CCCCC2)n(O)c(=O)c1`, the TGI in the assay on M19-MEL melanoma is greater than 100 µM; with XF 498 CNS, 35.8 µM; in the assay on PC-3 prostate, greater than 100 µM; in the assay on DLD-1 colon, greater than 100 µM; with LXFL 529 NSCLC, greater than 100 µM; with BT-549 breast it was greater than 100 µM. The TGI in the assay on HOP-18 NSCLC and in the assay on T-47D breast was greater than 100 µM throughout. For the same molecule, the figures for the GI50 in the assay with PC-3 prostate, in the assay on BT-549 breast and with T-47D breast were 3.02 µM, 6.19 µM and 2.63 µM, respectively.
In the case of `Cc1ccc(N=NC(C(=O)c2ccccc2)C(=O)c2ccccc2)cc1`, the TGI in the assay with M19-MEL melanoma was 41.2 µM; with XF 498 CNS it was 54.6 µM; with DLD-1 colon, 76 µM; in the assay with LXFL 529 NSCLC, greater than 100 µM.
Take `CCCCCCCCCCCCCCCCOP(=O)(O)Oc1ccc(/C=C\c2ccc(OP(=O)(O)OCCCCCCCCCCCCCCCC)cc2)cc1`: the TGI with M19-MEL melanoma, with DLD-1 colon, with LXFL 529 NSCLC and in the assay with HOP-18 NSCLC was greater than 100 µM throughout.
For `Cc1cc(NS(=O)(=O)c2ccc(NC(=O)c3cccc4c(=O)c5ccccc5[nH]c34)cc2)no1`, the TGI in the assay on M19-MEL melanoma was greater than 100 µM; with XF 498 CNS it was 55.4 µM; in the assay with DLD-1 colon, greater than 100 µM; in the assay on LXFL 529 NSCLC it was 89.2 µM; in the assay with HOP-18 NSCLC, 28.2 µM.
Turning to `COC(=O)C(=O)C(C(=O)C=C(C)C)C(=O)C(=O)Nc1ccc(Cl)cc1C` (stereo not given), the TGI in the assay on M19-MEL melanoma, with DLD-1 colon, in the assay with LXFL 529 NSCLC and in the assay on HOP-18 NSCLC was greater than 100 µM each time.
In the case of `CC(=O)SCCC1c2[nH]c3ccccc3c2CCN1O` (stereo not given), the TGI with M19-MEL melanoma, with DLD-1 colon, in the assay on LXFL 529 NSCLC and with HOP-18 NSCLC was greater than 100 µM throughout.
In the case of `CCC(C)(O)c1cn(-c2cccc(S(=O)(=O)O)c2)nn1` (stereo not given), the TGI in the assay with XF 498 CNS, with DLD-1 colon, in the assay with LXFL 529 NSCLC and with HOP-18 NSCLC was greater than 100 µM throughout.
As for `CCOC(=O)[C@H]1Nc2ccc(C)cc2C2c3ccccc3CC21` (stereo not given in full), the TGI in the assay with M19-MEL melanoma, in the assay with DLD-1 colon, in the assay with LXFL 529 NSCLC and with HOP-18 NSCLC was greater than 100 µM each time.
As for `CNC=O.[O]=[Ge].[O]=[Ge].[O]=[Ge].[O]=[Ge][OH].[O]=[Ge][OH]`, the TGI with M19-MEL melanoma, with XF 498 CNS, with DLD-1 colon, in the assay on LXFL 529 NSCLC and with HOP-18 NSCLC was greater than 100 µM in each case. Besides, in the assay on LXFL 529 NSCLC, the GI50 is greater than 100 µM.
Regarding `CCN(CC)C(=O)C/C(C)=N/NC(=O)c1ccncc1`, the TGI with XF 498 CNS, with DLD-1 colon and in the assay on LXFL 529 NSCLC was greater than 100 µM each time.
Turning to `COC(=O)C(=O)C(C(=O)C(=O)Nc1ccc(C)cc1C)c1nc2ccccc2[nH]c1=O` (stereo not given), the TGI with M19-MEL melanoma, in the assay on XF 498 CNS, in the assay with DLD-1 colon, in the assay on LXFL 529 NSCLC and in the assay with HOP-18 NSCLC was greater than 100 µM throughout.
Consider `CSc1ccc(/C=C2/C[N+](C)(C)C/C(=C/c3ccc(SC)cc3)C2=O)cc1`, for which the TGI in the assay with M19-MEL melanoma amounted to 19.8 µM; in the assay on XF 498 CNS, 29.1 µM; in the assay with DLD-1 colon it was 22.8 µM; in the assay on HOP-18 NSCLC it was 79.2 µM.
For the molecule `N#Cc1cnsc1`, the TGI in the assay with M19-MEL melanoma, in the assay on XF 498 CNS, in the assay with DLD-1 colon, in the assay with LXFL 529 NSCLC and in the assay on HOP-18 NSCLC was greater than 100 µM in each case.
With `O=C(/C=C/c1ccccc1Cl)c1ccccc1Cl`, the TGI in the assay with M19-MEL melanoma is 61 µM; in the assay with DLD-1 colon, 33.4 µM; in the assay on LXFL 529 NSCLC, 32 µM; in the assay with HOP-18 NSCLC, 89.2 µM.
In the case of `COC(=O)C1=C(c2ccc3c(c2)OCO3)O[C@H](c2ccc3c(c2)OCO3)[C@H]1COC(C)=O`, the TGI with M19-MEL melanoma, in the assay with XF 498 CNS, with DLD-1 colon, in the assay with LXFL 529 NSCLC and with HOP-18 NSCLC was greater than 100 µM each time.
Consider `N#CCCN(CCC#N)c1ccc(C(=O)NN)cc1`, for which the TGI in the assay on M19-MEL melanoma, in the assay on XF 498 CNS, with DLD-1 colon, in the assay with LXFL 529 NSCLC and in the assay with HOP-18 NSCLC was greater than 100 µM in each case.
For the molecule `O=C1C2=C(CC3C(C2)C3(Br)Br)C(=O)C2=C1CC1C(C2)C1(Br)Br` (stereo not given), the TGI in the assay on M19-MEL melanoma, in the assay on XF 498 CNS, in the assay with DLD-1 colon, in the assay with LXFL 529 NSCLC and in the assay on HOP-18 NSCLC was greater than 100 µM throughout.
`COc1cc([N+](=O)[O-])ccc1NC(=O)C(F)(F)F`: the TGI with MDA-N, with PC-3 prostate, in the assay on BT-549 breast and with T-47D breast was greater than 100 µM in each case.
In the case of `N#CCCN(CCC#N)c1ccc(/C=C2\N=C(CN3C(=O)c4ccccc4C3=O)OC2=O)cc1`, the TGI in the assay on M19-MEL melanoma, with XF 498 CNS and in the assay with LXFL 529 NSCLC was greater than 100 µM in each case.
For the molecule `COC(=O)c1cc2c(c(C(=O)OC)c1O)C(=O)C=CC2=O`, the GI50 with M19-MEL melanoma is greater than 9.1 µM; in the assay on XF 498 CNS, 37.8 µM; with DLD-1 colon, greater than 9.1 µM; in the assay with LXFL 529 NSCLC, 4.16 µM; in the assay with HOP-18 NSCLC, 16.3 µM. The TGI in the assay with M19-MEL melanoma was greater than 58.5 µM; in the assay with XF 498 CNS, greater than 100 µM; in the assay on DLD-1 colon, greater than 46.1 µM; in the assay on LXFL 529 NSCLC, 9.1 µM; with HOP-18 NSCLC it was 9.1 µM and 29.9 µM.
As for `CCC1(O)C(=O)OCc2c1cc1n(c2=O)Cc2cc3c(N)cccc3nc2-1` (stereo not given), the TGI with M19-MEL melanoma was 1.29 µM; with MDA-N, 2.57 µM; with XF 498 CNS, 1.85 µM; in the assay on PC-3 prostate, greater than 100 µM; in the assay with DLD-1 colon, greater than 56.4 µM; with LXFL 529 NSCLC, 4.71 µM. For the same molecule, the TGI with BT-549 breast is 4.95 µM; with HOP-18 NSCLC, 0.903 µM; with T-47D breast, 0.654 µM. The GI50 in the assay on LXFL 529 NSCLC is 0.307 µM; in the assay on T-47D breast, 0.0191 µM.
Take `CC(C)=CC(=O)N1CCN(C(=O)C=C(C)C)CC1`: the TGI in the assay on M19-MEL melanoma, with XF 498 CNS, in the assay with DLD-1 colon, in the assay on LXFL 529 NSCLC and in the assay with HOP-18 NSCLC was greater than 100 µM in each case.
For `O=C(CC(=O)N1N=C(c2ccccc2)C(N=Nc2ccc(Cl)cc2)C1=O)Nc1ccccc1Cl` (stereo not given), the TGI is greater than 100 µM in the assay with M19-MEL melanoma; 89.7 µM in the assay with XF 498 CNS; greater than 100 µM in the assay with DLD-1 colon; greater than 100 µM in the assay with LXFL 529 NSCLC; 67.8 µM with HOP-18 NSCLC.
Consider `O=c1[nH]c(=O)n(C2CC(O)C(CS)O2)cc1F` (stereo not given), for which the TGI in the assay with M19-MEL melanoma, in the assay with MDA-N, in the assay on XF 498 CNS, in the assay with PC-3 prostate, in the assay with DLD-1 colon and with BT-549 breast was greater than 100 µM in each case. Also, the TGI in the assay with HOP-18 NSCLC and in the assay on T-47D breast was greater than 100 µM each time.
